Test results: article PMC11863921 (BMC Biology, 2025)
Entries after “also recorded” stand apart in the source; their conditions may differ.

How the values were obtained:
AsolLGR4(long) = assay: CRE reporter gene assay in HEK-293T cells transfected with AsolLGR4(long); format: cell-based, A. cf. solaris; conditions: HEK-293T cells with AsolLGR4(long), any concentration tested
From the text: (§1) The coding sequences for AsolRXFP/LGR3, AsolLGR4(short), and AsolLGR4(long) lacking a native N-terminal signal peptide were optimized for mammalian codon usage, but with the addition of a 5′ nucleotide sequence encoding an N-terminal bovine prolactin precursor signal peptide followed by a FLAG tag. The coding sequences for each construct are presented in Additional file 16: Dataset S9. Following the addition of a Kozak sequence (GCCACC) before the start codon of each coding sequence, the receptor cDNAs were synthesized in pUC57 vectors (GenScript, Hong Kong) with BamHI and XhoI restriction sites and Gateway‐compatible attB5 and attB2 sites at both ends to also allow recloning into pcDNA3.1/Zeo ( +) or Gateway (Invitrogen) vectors. pUC57 vectors were first digested with BamHI and XhoI restriction enzymes together with pcDNA3.1/Zeo ( +) followed by agarose gel purification of the digested DNA. Receptor constructs were ligated into the cut pcDNA3.1/Zeo ( +) vector to produce pcDNA-AsolRXFP/LGR3, pcDNA − AsolLGR4(short), and pcDNA − AsolLGR4(long). The sequences were confirmed by using Sanger sequencing on both strands. The AsolRXFP/LGR3 sequence was cloned into a lentiviral vector under the control of the constitutive human Ef1α promoter using Gateway technology (Invitrogen), according to the manufacturer’s instructions. […]

AsolLGR4(short) = assay: CRE reporter gene assay in HEK-293T cells transfected with AsolLGR4(short); format: cell-based, A. cf. solaris; conditions: HEK-293T cells with AsolLGR4(short), any concentration tested
From the text: as §1

Substance	cAMP activity / CRE reporter gene activation (AsolLGR4(long))	cAMP activity / CRE reporter gene activation (AsolLGR4(short))
Acanthaster cf. solaris Relaxin-like gonad-stimulating peptide 1 [AsolRGP1]	no significant increase in cAMP levels; also recorded: Neither AsolRGP1 nor AsolRGP2 induced CRE reporter gene activation	no significant increase in cAMP levels; also recorded: Neither AsolRGP1 nor AsolRGP2 induced CRE reporter gene activation
Acanthaster cf. solaris Relaxin-like gonad-stimulating peptide 2 [AsolRGP2]	no significant increase in cAMP levels; also recorded: Neither AsolRGP1 nor AsolRGP2 induced CRE reporter gene activation	no significant increase in cAMP levels; also recorded: Neither AsolRGP1 nor AsolRGP2 induced CRE reporter gene activation
